US12384789B2, “Compounds for treating Huntington's disease” (PTC Therapeutics, Inc., priority 2017, dated 2025)

tested on: Endogenous Huntingtin Protein; assay: Endogenous Huntingtin Protein Assay (Meso Scale Discovery ELISA-based electrochemiluminescence); format: cell-based; details: MSD electrochemiluminescence, Table 1
Protocol: Compounds of Formula (I) were tested using the Meso Scale Discovery (MSD) Assay provided in International Application No. PCT/US2016/066042, filed on Dec. 11, 2016 and claiming priority to United States Provisional Application U.S. 62/265,652 filed on Dec. 10, 2015, the entire contents of which are incorporated herein by reference.
The Endogenous Huntingtin Protein assay used in Example 1 was developed using the ELISA-based MSD electrochemiluminescence assay platform.
Endogenous Huntingtin Protein Assay
Meso Scale Discovery (MSD) 96-well or 384-well plates were coated overnight at 4° C. with MW1 (expanded polyglutamine) or MAB2166 monoclonal antibody (for capture) at a concentration of 1 μg/mL in PBS (30 μL per well). Plates were then washed three times with 300 μL wash buffer (0.05% Tween-20 in PBS) and blocked (100 μL blocking buffer; 5% BSA in PBS) for 4-5 hours at room temperature with rotational shaking and then washed three times with wash buffer.
Samples (25 μL) were transferred to the antibody-coated MSD plate and incubated overnight at 4° C. After removal of the lysates, the plate was washed three times with wash buffer, and 25 μL of #5656S (Cell signaling; rabbit monoclonal) secondary antibody (diluted to 0.25 μg/mL in 0.05% Tween-20 in blocking buffer) was added to each well and incubated with shaking for 1 Hour at room temperature. Following incubation with the secondary antibody, the wells were rinsed with wash buffer after which 25 μL of goat anti-rabbit SULFO TAG secondary detection antibody (required aspect of the MSD system) (diluted to 0.25 μg/mL in 0.05% Tween-20 in blocking buffer) was added to each well and incubated with shaking for 1 hour at room temperature. After rinsing three times with wash buffer, 150 μL of read buffer T with surfactant (MSD) were added to each empty well, and the plate was imaged on a SI 6000 imager (MSD) according to manufacturers' instructions provided for 96- or 384-well plates.

| SMILES | IC50 |
| --- | --- |
| CCN1CCC(c2cc(F)c3nc(-c4cc(F)c5nn(C)cc5c4)ncc3c2)CC1 [Compound 202, 6-(1-ethylpiperidin-4-yl)-8-fluoro-2-(7-fluoro-2-methyl-2H-indazol-5-yl)quinazoline] | ≤ 100 nM |
| Cc1cn2nc(-c3cc(F)c4cc(C5CCNCC5)nnc4c3)cc(OCCCn3ccnc3)c2n1 [Compound 142, 5-fluoro-7-{8-[3-(1H-imidazol-1-yl)propoxy]-2-methylimidazo[1,2-b]pyridazin-6-yl}-3-(piperidin-4-yl)cinnoline] | 100 to 500 nM |
| CCN1CC=C(c2cc(F)c3cc(-c4cc(F)c5nn(C)cc5c4)nnc3c2)CC1 [Compound 153, 7-(1-ethyl-1,2,3,6-tetrahydropyridin-4-yl)-5-fluoro-3-(7-fluoro-2-methyl-2H-indazol-5-yl)cinnoline] | ≤ 100 nM |
| Cc1cn2nc(-c3cc4c(F)cc(C5CCNCC5)cc4nn3)cc(C)c2n1 [Compound 185, 3-(2,8-dimethylimidazo[1,2-b]pyridazin-6-yl)-5-fluoro-7-(piperidin-4-yl)cinnoline] | ≤ 100 nM |
| CCN1CCC(c2cc3c(F)cc(-c4cn5cc(C)nc(C)c5n4)cc3nn2)CC1 [Compound 119, 7-(6,8-dimethylimidazo[1,2-a]pyrazin-2-yl)-3-(1-ethylpiperidin-4-yl)-5-fluorocinnoline] | 500 to 1000 nM |
| CCN1[C@H](C)CC(c2cc3c(F)cc(-c4cc(C)c5nc(C)cn5n4)cc3nn2)C[C@@H]1C (stereo partly drawn) [Compound 168, 7-(2,8-dimethylimidazo[1,2-b]pyridazin-6-yl)-3-[(2R,6S)-1-ethyl-2,6-dimethylpiperidin-4-yl]-5-fluorocinnoline] | 100 to 500 nM |
| Cc1cn2nc(-c3cc(F)c4cc(C5C[C@@H](C)N[C@@H](C)C5)nnc4c3)cc(C)c2n1 (stereo partly drawn) [Compound 90, 7-(2,8-dimethylimidazo[1,2-b]pyridazin-6-yl)-3-[(2R,4r,6S)-2,6-dimethylpiperidin-4-yl]-5-fluorocinnoline] | ≤ 100 nM |
| Cc1cn2cc(-c3ccc4nc(C5CCNCC5)ccc4c3)nc(C)c2n1 [Compound 18, 6-(2,8-dimethylimidazo[1,2-a]pyrazin-6-yl)-2-(piperidin-4-yl)quinoline] | 100 to 500 nM |
| CCN1CCC(c2cc3c(F)cc(-c4cc(CO)c5nc(C)cn5n4)cc3nn2)CC1 [Compound 113, {6-[3-(1-ethylpiperidin-4-yl)-5-fluorocinnolin-7-yl]-2-methylimidazo[1,2-b]pyridazin-8-yl}methanol] | ≤ 100 nM |
| Cc1cn2cc(-c3cc(F)c4cc(C5CCNCC5)nnc4c3)ccc2n1 [Compound 210, 5-fluoro-7-(2-methylimidazo[1,2-a]pyridin-6-yl)-3-(piperidin-4-yl)cinnoline] | ≤ 100 nM |
| Cc1cn2cc(-c3cc(F)c4nc(C5CCNCC5)nnc4c3)cc2c(C)n1 [Compound 64, 7-(1,3-dimethylpyrrolo[1,2-a]pyrazin-7-yl)-5-fluoro-3-(piperidin-4-yl)-1,2,4-benzotriazine] | ≤ 100 nM |
| Cn1cc2cc(-c3cc(F)c4nc(C5CCNCC5)ncc4c3)cc(F)c2n1 [Compound 36, 8-fluoro-6-(7-fluoro-2-methyl-2H-indazol-5-yl)-2-(piperidin-4-yl)quinazoline] | ≤ 100 nM |
| Cc1cc(-c2cc(F)c3cc(C4=CCNCC4)nnc3c2)cc2cn(C)nc12 [Compound 55, 7-(2,7-dimethyl-2H-indazol-5-yl)-5-fluoro-3-(1,2,3,6-tetrahydropyridin-4-yl)cinnoline] | ≤ 100 nM |
| Cc1cn2nc(-c3cc(F)c4cc(N5CC6(CCNCC6)C5)nnc4c3)cc(C)c2n1 [Compound 221, 3-(2,7-diazaspiro[3.5]nonan-2-yl)-7-(2,8-dimethylimidazo[1,2-b]pyridazin-6-yl)-5-fluorocinnoline] | ≤ 100 nM |
| CCN1CCC(c2cc3c(F)cc(-c4cc(C5CC5)c5nc(C)cn5n4)cc3nn2)CC1 [Compound 115, 7-(8-cyclopropyl-2-methylimidazo[1,2-b]pyridazin-6-yl)-3-(1-ethylpiperidin-4-yl)-5-fluorocinnoline] | ≤ 100 nM |
| Cc1cn2nc(-c3cc(F)c4cc(C5CCN(C)CC5)nnc4c3)cc(CO)c2n1 [Compound 180, {6-[5-fluoro-3-(1-methylpiperidin-4-yl)cinnolin-7-yl]-2-methylimidazo[1,2-b]pyridazin-8-yl}methanol] | ≤ 100 nM |
| Cc1cn2nc(-c3cc(F)c4cc(N5C[C@@H]6[C@H](C5)[C@H]6N(C)C)nnc4c3)cc(C)c2n1 [Compound 223, (1R,5S,6s)-3-[7-(2,8-dimethylimidazo[1,2-b]pyridazin-6-yl)-5-fluorocinnolin-3-yl]-N,N-dimethyl-3-azabicyclo[3.1.0]hexan-6-amine] | ≤ 100 nM |

| SMILES | IC50 |
| --- | --- |
| Cc1cn2nc(-c3cc(F)c4cc(C5CCNC5)nnc4c3)cc(C)c2n1 (stereo not drawn) [Compound 143, 7-(2,8-dimethylimidazo[1,2-b]pyridazin-6-yl)-5-fluoro-3-(pyrrolidin-3-yl)cinnoline] | ≤ 100 nM |
| Cc1cn2nc(-c3cc(F)c4cc(C5CCCN(CCF)CC5)nnc4c3)cc(C)c2n1 (stereo not drawn) [Compound 199, 7-(2,8-dimethylimidazo[1,2-b]pyridazin-6-yl)-5-fluoro-3-[1-(2-fluoroethyl)azepan-4-yl]cinnoline] | ≤ 100 nM |
| CCN1CCC(c2ccc3nc(-c4ccc5nn(C)cc5c4)ccc3c2)CC1 [Compound 2, 6-(1-ethylpiperidin-4-yl)-2-(2-methyl-2H-indazol-5-yl)quinoline] | 1000 to 3000 nM |
| Cc1cn2nc(-c3cc(F)c4cc(C5CCNCC5)nnc4c3)cc(OCCCn3cnc4ccccc43)c2n1 [Compound 150, 7-{8-[3-(1H-benzimidazol-1-yl)propoxy]-2-methylimidazo[1,2-b]pyridazin-6-yl}-5-fluoro-3-(piperidin-4-yl)cinnoline] | ≤ 100 nM |
| Cc1cn2nc(-c3cc(F)c4cc(C5CCN(CCF)CC5)nnc4c3)cc(C#N)c2n1 [Compound 179, 6-{5-fluoro-3-[1-(2-fluoroethyl)piperidin-4-yl]cinnolin-7-yl}-2-methylimidazo[1,2-b]pyridazine-8-carbonitrile] | ≤ 100 nM |
| Cc1cn2nc(-c3cc(F)c4nc(C5CCN(C)CC5)ccc4c3)cc(C)c2n1 [Compound 47, 6-(2,8-dimethylimidazo[1,2-b]pyridazin-6-yl)-8-fluoro-2-(1-methylpiperidin-4-yl)quinoline] | ≤ 100 nM |
| CCN1CCC(c2cc3c(F)cc(-c4cc(OC)c5nc(C)cn5n4)cc3nn2)CC1 [Compound 111, 3-(1-ethylpiperidin-4-yl)-5-fluoro-7-(8-methoxy-2-methylimidazo[1,2-b]pyridazin-6-yl)cinnoline] | ≤ 100 nM |
| Cc1cn2nc(-c3cc(F)c4cc(C5CCNCC5)nnc4c3)cc(CO)c2n1 [Compound 107, {6-[5-fluoro-3-(piperidin-4-yl)cinnolin-7-yl]-2-methylimidazo[1,2-b]pyridazin-8-yl}methanol] | ≤ 100 nM |
| Cc1cc2oc(-c3cc(F)c4cc(C5C[C@@H](C)N(C)[C@@H](C)C5)nnc4c3)nc2c(C)n1 (stereo partly drawn) [Compound 228, 7-(4,6-dimethyloxazolo[4,5-c]pyridin-2-yl)-5-fluoro-3-((2S,4R,6R)-1,2,6-trimethylpiperidin-4-yl)cinnoline] | 100 to 500 nM |
| Cc1cn2cc(-c3nnc4cc(C5CCNCC5)cc(F)c4n3)cc(C)c2n1 [Compound 40, 3-(2,8-dimethylimidazo[1,2-a]pyridin-6-yl)-5-fluoro-7-(piperidin-4-yl)-1,2,4-benzotriazine] | 100 to 500 nM |
| Cc1nc2c(F)cc(-c3cc(F)c4nc(C5CCNCC5)nnc4c3)cc2o1 [Compound 68, 5-fluoro-7-(4-fluoro-2-methyl-1,3-benzoxazol-6-yl)-3-(piperidin-4-yl)-1,2,4-benzotriazine] | ≤ 100 nM |
| CCN1CCC(c2cc3c(F)cc(-c4cc(Oc5ccccc5)c5nc(C)cn5n4)cc3nn2)CC1 [Compound 200, 3-(1-ethylpiperidin-4-yl)-5-fluoro-7-(2-methyl-8-phenoxyimidazo[1,2-b]pyridazin-6-yl)cinnoline] | ≤ 100 nM |
| Cc1cc(-c2ccc3nc(C4CCNCC4)cnc3c2)cc2cn(C)nc12 [Compound 31, 6-(2,7-dimethyl-2H-indazol-5-yl)-2-(piperidin-4-yl)quinoxaline] | 100 to 500 nM |
| Cc1nc2c(C)cc(-c3cc(F)c4cc(C5CCNCC5)nnc4c3)cc2s1 [Compound 118, 7-(2,4-dimethyl-1,3-benzothiazol-6-yl)-5-fluoro-3-(piperidin-4-yl)cinnoline] | 100 to 500 nM |
| CCN1CC=C(c2cc(F)c3nc(-c4cc(F)c5nn(C)cc5c4)ncc3c2)CC1 [Compound 201, 6-(1-ethyl-1,2,3,6-tetrahydropyridin-4-yl)-8-fluoro-2-(7-fluoro-2-methyl-2H-indazol-5-yl)quinazoline] | ≤ 100 nM |
| Cc1cn2nc(-c3cc(F)c4cc(C5CCN(CCCn6cccn6)CC5)nnc4c3)cc(C)c2n1 [Compound 160, 7-(2,8-dimethylimidazo[1,2-b]pyridazin-6-yl)-5-fluoro-3-{1-[3-(1H-pyrazol-1-yl)propyl]piperidin-4-yl}cinnoline] | ≤ 100 nM |
